The values that follow come from PMC6270209, “Synthesis, Antimycobacterial Activity and In Vitro Cytotoxicity of 5-Chloro-N-phenylpyrazine-2-carboxamides” (Molecules, 2013).

For series [1], the system named is M. kansasii Hauduroy CNCTC My 235/80. Description: In vitro antimycobacterial activity, microdilution panel method (MIC). Type of series: cell-based, Mycobacterium kansasii. The conditions noted are these: for MIC: Mycobacterium kansasii.
The test system of series [2] is M. avium CNCTC My 152/73. Described as above. It counts as cell-based, Mycobacterium avium. The conditions noted are these: for MIC: Mycobacterium avium.
A short description of series [3]: in vitro. As to conditions: human.
Series [4] concerns HepG2 cells.
Series [5] deals with M. avium ssp. avium Chester CNCTC My 80/72. Description: In vitro antimycobacterial activity, microdilution panel method (MIC). It counts as cell-based, Mycobacterium avium. The conditions noted are these: for MIC: Mycobacterium avium. A general note: In broth dilution the organism is exposed to a series of concentrations in liquid medium.
Series [6] concerns HepG2 cells. Description: cells. As to conditions: Homo sapiens, HepG2, read-out: HepG2 IC50.
Series [7] deals with Chinese hamster ovary (CHO-K1) cell line. Description: cells. As to conditions: Cricetulus griseus, CHO-K1, 24 h, read-out: CHO-K1 IC50.
In series [8] the test system is renal cell adenocarcinoma (ACHN) cell line. Description: cells. The conditions noted are these: Homo sapiens, 24 h, read-out: ACHN IC50.
For series [9], the system named is M. tuberculosis H37Rv CNCTC My 331/88. Put plainly: In vitro antimycobacterial activity, microdilution panel method (MIC). It counts as cell-based, Mycobacterium tuberculosis. As to conditions: for MIC: Mycobacterium tuberculosis, H37RV.
Series [10] is described as follows: Solubility in antimycobacterial testing medium (observation). It counts as physicochemical.
The conditions of series [11]: RP-HPLC, C18, MeOH 70% / H2O 30%, 30 °C.
The mark [12] stands for this setting: M. kansasii Hauduroy CNCTC My 235/80.
[13] abbreviates: SI calculated for M. tbc as IC50 (HepG2)/MIC (in μM) using the lower MIC values (Table 1).
Where [14] appears, read: M. tuberculosis H37Rv, retest with extended dilution scale up to 0.39 µg/mL, read-out: Antimycobacterial activity MIC, M. tbc (confirmation retest, value in parentheses).
[15] abbreviates: MIC converted to molar concentrations, read-out: M. tbc H37Rv MIC.
[16] abbreviates: pH 5.6, M. tuberculosis H37Rv, primary test, dilution scale 100–[…], Šula's medium pH 5.6, read-out: Antimycobacterial activity MIC, M. tbc.
[17] abbreviates: read-out: M. tbc H37Rv MIC (µM), MIC converted to molar concentrations.

Converted amounts (≈) assume the structure as drawn. Like-named read-outs stand apart in the source and are kept apart here.

A word on the IC50: it is the midpoint of a concentration-inhibition curve. Usually melting point stands for the temperature of the solid-liquid transition.

With `O=C(Nc1ccc(O)cc1)c1cnc(Cl)cn1` [Compound 4, 5-Chloro-N-(4-hydroxyphenyl)pyrazine-2-carboxamide], the “Activity against M. kansasii (in words)” value in series [1] was “inactive”. For the same compound, the MIC in series [1] (setting [12]) was 100 µg/mL (≈ 401 µM); in series [2] it was 50 µg/mL (≈ 200 µM); in series [5], above 100 µg/mL; in [9] (setting [14]), 12.5 µg/mL; in series [9] (setting [15]), 12.5 µM; in series [9] (setting [16]) it was 3.13 µg/mL. Moreover, the IC50 in [3] was determined as 68.6 µM; in series [6], 69 µM; in [7] it was 48 ± 4 µM; in series [8], 100 ± 39 µM. For the same compound, the “Cytotoxicity SI” value in series [4] (setting [13]) is given as 5.47.

With `NC(=O)c1cnc(Cl)cn1` [Compound 5-Cl-PZA, 5-chloropyrazine-2-carboxamide, reference compound], the MIC in [1] (setting [12]) was 12.5 µg/mL (≈ 79.3 µM); in series [2] it was above 100 µg/mL; in series [5] it was above 100 µg/mL; in [9] (setting [16]), 25 µg/mL; in series [9] (setting [17]), 159 µM. Besides, the concentration for half-maximal inhibition (IC50) was 1590 µM in series [3], 1590 µM in [6], 290 ± 43 µM in [7] and 540 ± 120 µM in [8]. Further, in series [4] (human), the “Cytotoxicity SI” value is listed as 10.0.

For the compound `COc1ccc(NC(=O)c2cnc(Cl)cn2)c(OC)c1` [Compound 5], the MIC in series [1] (setting [12]), in series [2], in [5] and in [9] (setting [16]) was above 50 µg/mL in each case. For the same compound, the “Solubility in testing medium (in words)” value in [10] was “Insufficient solubility”. Further, the “Antimycobacterial activity against M. tbc H37Rv (in words)” value (shortened to “Antimycobacterial activity … (in words)”) in [9] was “inactive”.

`O=C(Nc1cc(Cl)c(Cl)cc1Cl)c1cnc(Cl)cn1` [Compound 15, 5-Chloro-N-(2,4,5-trichlorophenyl)pyrazine-2-carboxamide] displayed a melting point of 189.3 to 192.4 °C. This compound also displayed an MIC in series [1] (setting [12]) above 100 µg/mL. Besides, the MIC in series [2] is above 100 µg/mL. For the same compound, the MIC in series [5] is above 100 µg/mL. Moreover, in [10], the “Solubility in testing medium (in words)” value is reported as “low solubility”. Further, the “Antimycobacterial activity … (in words)” value in series [9] was “inactive or weakly active”. Besides, the MIC in series [9] (setting [16]) was above 100 µg/mL.

For the compound `O=C(Nc1ccc(I)cc1Cl)c1cnc(Cl)cn1` [Compound 18, 5-Chloro-N-(2-chloro-4-iodophenyl)pyrazine-2-carboxamide], the melting point is 175.6 to 177.3 °C. The “Activity against M. kansasii (in words)” value in series [1] is given as “most active”. In series [1] (setting [12]), this compound returned an MIC of 1.56 µg/mL (≈ 3.96 µM). In addition, the MIC in series [2] is above 50 µg/mL. In addition, the MIC in series [5] is above 50 µg/mL. In addition, the “Solubility in testing medium (in words)” value in series [10] was “low solubility”. Moreover, the “Antimycobacterial activity … (in words)” value in series [9] was “inactive or weakly active”. In addition, the MIC in [9] (setting [16]) worked out at 12.5 µg/mL.

On to `O=C(Nc1cc(Cl)ccc1O)c1cnc(Cl)cn1` [Compound 21, 5-Chloro-N-(5-chloro-2-hydroxyphenyl)pyrazine-2-carboxamide], for which the “Antimycobacterial activity MIC, M. kansasii” value in series [1] (setting [12]) came out at 12.5 µg/mL. Besides, the MIC was determined as 12.5 µg/mL (≈ 44 µM) in [1] (setting [12]); 12.5 µg/mL (≈ 44 µM) in series [2]; 12.5 µg/mL (≈ 44 µM) in series [5]; 6.25 µg/mL in series [9] (setting [14]); 5.5 µM in series [9] (setting [15]); 1.56 µg/mL in series [9] (setting [16]). Also, the “Antimycobacterial activity MIC, M. avium” value in series [2] and in series [5] was 12.5 µg/mL in each case. In addition, the IC50 in series [3] is 40.6 µM; in [6], 41 µM; in series [7] it was 39 ± 2 µM; in series [8] it was 51 ± 14 µM. The “Cytotoxicity SI” value in series [4] (setting [13]) is 7.39.

For the compound `NC(=O)c1cnccn1` [PZA, pyrazinamide, reference compound], the MIC in series [1] (setting [12]) was above 100 µg/mL; in [2], above 100 µg/mL; in series [5], above 100 µg/mL; in [9] (setting [16]) it was 6.25 to 12.5 µg/mL; in [9] (setting [17]), 51 to 102 µM. This compound also yielded an IC50 in [3] above 10000 µM. The same compound came in with a Lipophilicity logk in series [11] of −0.687. In series [4] (human), the “Cytotoxicity SI” value is above 196.
